The values below come from ChEMBL document CHEMBL5291721, “A preclinical secondary pharmacology resource illuminates target-adverse drug reaction associations of marketed drugs” (Nat Commun, 2023).

SMILES strings stand for the structures.

The target in test [1] is Acetylcholinesterase (Homo sapiens, UniProt P22303). The class given is functional.
The target of test [2] is Prostaglandin G/H synthase 1 (Homo sapiens, UniProt P23219). The class given is functional.
Test [3] deals with T1, Muscarinic acetylcholine receptor M1 (Homo sapiens, UniProt P11229).
T1 sequence (P11229 whole entry): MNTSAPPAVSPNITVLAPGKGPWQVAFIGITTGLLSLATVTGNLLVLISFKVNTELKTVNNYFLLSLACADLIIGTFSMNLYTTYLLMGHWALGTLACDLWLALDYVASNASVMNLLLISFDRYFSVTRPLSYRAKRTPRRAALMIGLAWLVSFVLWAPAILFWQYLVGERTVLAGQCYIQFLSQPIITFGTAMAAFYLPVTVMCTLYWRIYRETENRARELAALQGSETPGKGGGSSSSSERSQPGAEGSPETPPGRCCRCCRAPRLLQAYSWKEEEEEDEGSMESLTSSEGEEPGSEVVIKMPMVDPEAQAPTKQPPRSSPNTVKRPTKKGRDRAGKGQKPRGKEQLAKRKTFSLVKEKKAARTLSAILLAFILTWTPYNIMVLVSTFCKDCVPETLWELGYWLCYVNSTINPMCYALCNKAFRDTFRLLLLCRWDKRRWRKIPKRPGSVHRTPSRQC
The class given is functional, cell-based.

The target of test [4] is T1, Muscarinic acetylcholine receptor M1. The class given is functional.
Test [5] deals with T2, Alpha-1A adrenergic receptor (Homo sapiens, UniProt P35348).
T2 sequence (P35348 whole entry): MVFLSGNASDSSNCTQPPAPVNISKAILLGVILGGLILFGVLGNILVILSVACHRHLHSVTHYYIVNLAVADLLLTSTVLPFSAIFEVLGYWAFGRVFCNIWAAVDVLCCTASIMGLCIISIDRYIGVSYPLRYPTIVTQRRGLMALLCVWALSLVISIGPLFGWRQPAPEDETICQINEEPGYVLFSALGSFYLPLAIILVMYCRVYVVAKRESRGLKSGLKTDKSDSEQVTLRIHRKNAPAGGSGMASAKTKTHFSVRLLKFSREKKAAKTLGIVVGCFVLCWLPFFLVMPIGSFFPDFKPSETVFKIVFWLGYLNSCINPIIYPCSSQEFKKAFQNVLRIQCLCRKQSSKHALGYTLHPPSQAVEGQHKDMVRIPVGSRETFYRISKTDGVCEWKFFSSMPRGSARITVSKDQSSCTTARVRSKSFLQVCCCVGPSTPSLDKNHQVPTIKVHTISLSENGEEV
The class given is functional, cell-based.

Test [6] concerns the target T2, Alpha-1A adrenergic receptor. The class given is functional, cell-based. This is another data set of the same source.
The target in test [7] is Gamma-aminobutyric acid receptor subunit alpha-1 (Rattus norvegicus, UniProt P62813).
Test [8] has as its target 5-hydroxytryptamine receptor 2A (Homo sapiens, UniProt P28223). The class given is functional, cell-based.
Test [9] addresses T3, Amine oxidase [flavin-containing] A (Homo sapiens, UniProt P21397).
T3 sequence (P21397 whole entry): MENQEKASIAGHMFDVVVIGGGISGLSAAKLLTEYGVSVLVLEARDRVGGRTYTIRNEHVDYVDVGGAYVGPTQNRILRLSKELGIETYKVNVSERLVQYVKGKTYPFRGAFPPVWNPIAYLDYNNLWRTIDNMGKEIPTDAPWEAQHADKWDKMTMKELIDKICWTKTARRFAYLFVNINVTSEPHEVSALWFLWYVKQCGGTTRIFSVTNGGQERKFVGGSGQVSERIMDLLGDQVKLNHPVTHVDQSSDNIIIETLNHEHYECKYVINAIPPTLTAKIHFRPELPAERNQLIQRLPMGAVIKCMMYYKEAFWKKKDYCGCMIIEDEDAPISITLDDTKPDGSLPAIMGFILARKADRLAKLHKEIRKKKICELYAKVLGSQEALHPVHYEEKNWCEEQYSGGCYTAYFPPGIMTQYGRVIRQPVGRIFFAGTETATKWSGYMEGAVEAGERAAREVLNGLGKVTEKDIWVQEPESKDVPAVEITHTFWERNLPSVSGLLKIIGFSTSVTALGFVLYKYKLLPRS
The class given is functional.

The target in test [10] is Histamine H2 receptor (Homo sapiens, UniProt P25021). The class given is functional, cell-based.
In test [11] the target is T2, Alpha-1A adrenergic receptor. The class given is functional, cell-based. This is another data set of the same source.
The target of test [12] is Beta-2 adrenergic receptor (Homo sapiens, UniProt P07550). The class given is functional, cell-based.
Test [13] deals with T4, 5-hydroxytryptamine receptor 1A (Homo sapiens, UniProt P08908).
T4 sequence (P08908 whole entry): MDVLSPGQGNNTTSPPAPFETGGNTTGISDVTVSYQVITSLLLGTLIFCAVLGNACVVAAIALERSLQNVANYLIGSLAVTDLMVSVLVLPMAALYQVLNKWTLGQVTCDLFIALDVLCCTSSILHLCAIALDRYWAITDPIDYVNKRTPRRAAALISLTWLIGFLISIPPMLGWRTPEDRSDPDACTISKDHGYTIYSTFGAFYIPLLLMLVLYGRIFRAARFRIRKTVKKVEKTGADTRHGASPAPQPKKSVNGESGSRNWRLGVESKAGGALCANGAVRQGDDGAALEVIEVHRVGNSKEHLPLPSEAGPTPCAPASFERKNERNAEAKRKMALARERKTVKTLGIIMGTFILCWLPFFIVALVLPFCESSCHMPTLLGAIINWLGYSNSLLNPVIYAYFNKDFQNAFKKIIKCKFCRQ
The class given is functional, cell-based.

Test [14] addresses Histamine H3 receptor (Homo sapiens, UniProt Q9Y5N1).
The target of test [15] is Mu-type opioid receptor (Homo sapiens, UniProt P35372).
Also: assay procedure not described here.

Sequence of Prostaglandin G/H synthase 1 (P23219 whole entry): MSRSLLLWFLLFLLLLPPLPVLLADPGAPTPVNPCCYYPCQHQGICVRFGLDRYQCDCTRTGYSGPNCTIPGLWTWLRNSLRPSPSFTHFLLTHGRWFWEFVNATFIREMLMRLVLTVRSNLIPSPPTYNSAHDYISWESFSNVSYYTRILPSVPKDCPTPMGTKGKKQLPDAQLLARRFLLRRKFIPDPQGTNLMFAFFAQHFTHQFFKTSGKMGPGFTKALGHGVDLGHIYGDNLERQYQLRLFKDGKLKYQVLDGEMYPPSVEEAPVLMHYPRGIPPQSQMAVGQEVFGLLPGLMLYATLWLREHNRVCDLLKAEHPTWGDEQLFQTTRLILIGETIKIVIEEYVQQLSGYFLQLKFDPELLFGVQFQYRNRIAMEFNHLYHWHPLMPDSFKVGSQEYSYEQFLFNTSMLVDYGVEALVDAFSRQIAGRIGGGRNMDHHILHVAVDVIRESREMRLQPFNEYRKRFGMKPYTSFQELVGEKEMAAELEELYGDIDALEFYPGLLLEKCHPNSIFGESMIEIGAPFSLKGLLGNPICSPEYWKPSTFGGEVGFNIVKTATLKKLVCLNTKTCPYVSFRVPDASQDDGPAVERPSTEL
Sequence of Beta-2 adrenergic receptor (P07550 whole entry): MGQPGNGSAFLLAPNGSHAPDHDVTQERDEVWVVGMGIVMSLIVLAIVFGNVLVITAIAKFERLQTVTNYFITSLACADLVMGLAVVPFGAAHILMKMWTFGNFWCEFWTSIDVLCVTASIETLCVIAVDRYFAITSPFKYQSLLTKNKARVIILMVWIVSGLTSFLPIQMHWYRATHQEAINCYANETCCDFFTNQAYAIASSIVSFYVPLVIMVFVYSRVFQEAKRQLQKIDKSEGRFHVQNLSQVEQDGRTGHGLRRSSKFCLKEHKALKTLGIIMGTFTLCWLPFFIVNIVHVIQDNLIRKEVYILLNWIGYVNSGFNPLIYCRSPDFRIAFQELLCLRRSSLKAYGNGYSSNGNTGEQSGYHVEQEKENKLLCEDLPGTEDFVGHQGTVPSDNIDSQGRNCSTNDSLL
Sequence of Acetylcholinesterase (P22303 whole entry): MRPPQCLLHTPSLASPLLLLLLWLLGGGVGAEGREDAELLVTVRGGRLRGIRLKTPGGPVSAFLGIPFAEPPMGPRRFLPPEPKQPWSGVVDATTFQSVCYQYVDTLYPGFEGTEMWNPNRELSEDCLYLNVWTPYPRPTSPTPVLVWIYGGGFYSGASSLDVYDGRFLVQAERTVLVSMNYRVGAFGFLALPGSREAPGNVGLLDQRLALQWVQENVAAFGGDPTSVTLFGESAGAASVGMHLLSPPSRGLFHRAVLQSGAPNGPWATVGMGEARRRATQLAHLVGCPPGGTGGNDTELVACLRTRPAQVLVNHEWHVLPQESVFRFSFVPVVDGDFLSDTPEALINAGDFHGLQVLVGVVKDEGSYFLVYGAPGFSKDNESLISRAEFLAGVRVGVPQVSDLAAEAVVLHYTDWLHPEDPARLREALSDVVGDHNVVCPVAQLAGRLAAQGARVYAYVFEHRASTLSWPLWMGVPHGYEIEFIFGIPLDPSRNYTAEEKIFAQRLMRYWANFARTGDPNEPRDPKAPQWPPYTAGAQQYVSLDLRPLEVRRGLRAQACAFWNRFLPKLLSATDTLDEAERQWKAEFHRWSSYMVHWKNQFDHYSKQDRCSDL
Sequence of 5-hydroxytryptamine receptor 2A (P28223 whole entry): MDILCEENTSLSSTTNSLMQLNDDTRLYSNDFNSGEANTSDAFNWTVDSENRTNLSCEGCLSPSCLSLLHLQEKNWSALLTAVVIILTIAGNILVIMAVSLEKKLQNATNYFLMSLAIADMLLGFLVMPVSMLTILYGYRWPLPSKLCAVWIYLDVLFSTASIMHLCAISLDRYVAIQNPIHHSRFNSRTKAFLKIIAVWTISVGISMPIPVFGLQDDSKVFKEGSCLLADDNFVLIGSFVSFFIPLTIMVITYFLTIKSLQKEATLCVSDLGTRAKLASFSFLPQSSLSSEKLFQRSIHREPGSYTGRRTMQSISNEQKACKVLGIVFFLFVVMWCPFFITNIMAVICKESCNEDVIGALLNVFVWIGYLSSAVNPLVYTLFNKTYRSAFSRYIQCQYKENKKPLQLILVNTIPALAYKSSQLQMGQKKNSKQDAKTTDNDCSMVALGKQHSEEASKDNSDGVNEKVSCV
Sequence of Histamine H3 receptor (Q9Y5N1 whole entry): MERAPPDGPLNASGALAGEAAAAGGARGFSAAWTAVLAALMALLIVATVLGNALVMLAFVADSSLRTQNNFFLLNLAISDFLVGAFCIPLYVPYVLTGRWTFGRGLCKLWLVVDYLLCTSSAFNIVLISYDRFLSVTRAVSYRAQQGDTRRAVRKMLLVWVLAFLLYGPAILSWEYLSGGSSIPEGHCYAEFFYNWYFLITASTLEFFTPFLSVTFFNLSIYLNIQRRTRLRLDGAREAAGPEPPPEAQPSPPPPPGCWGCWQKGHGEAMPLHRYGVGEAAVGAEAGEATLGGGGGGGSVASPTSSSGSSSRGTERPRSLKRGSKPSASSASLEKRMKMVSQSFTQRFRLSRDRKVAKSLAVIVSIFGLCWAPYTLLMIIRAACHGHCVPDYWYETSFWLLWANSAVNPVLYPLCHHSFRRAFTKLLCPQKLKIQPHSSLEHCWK
Sequence of Mu-type opioid receptor (P35372 whole entry): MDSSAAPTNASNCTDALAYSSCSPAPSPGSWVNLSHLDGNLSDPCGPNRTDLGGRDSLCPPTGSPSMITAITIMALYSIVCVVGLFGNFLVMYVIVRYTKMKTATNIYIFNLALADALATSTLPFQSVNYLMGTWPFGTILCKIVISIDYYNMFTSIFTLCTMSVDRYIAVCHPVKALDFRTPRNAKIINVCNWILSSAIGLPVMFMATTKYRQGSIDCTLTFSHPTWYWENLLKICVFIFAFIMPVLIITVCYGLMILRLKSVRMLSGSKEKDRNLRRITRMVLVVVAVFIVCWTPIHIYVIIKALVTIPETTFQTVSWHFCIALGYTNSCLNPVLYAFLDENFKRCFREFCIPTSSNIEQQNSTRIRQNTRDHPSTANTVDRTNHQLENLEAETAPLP
Sequence of Histamine H2 receptor (P25021 whole entry): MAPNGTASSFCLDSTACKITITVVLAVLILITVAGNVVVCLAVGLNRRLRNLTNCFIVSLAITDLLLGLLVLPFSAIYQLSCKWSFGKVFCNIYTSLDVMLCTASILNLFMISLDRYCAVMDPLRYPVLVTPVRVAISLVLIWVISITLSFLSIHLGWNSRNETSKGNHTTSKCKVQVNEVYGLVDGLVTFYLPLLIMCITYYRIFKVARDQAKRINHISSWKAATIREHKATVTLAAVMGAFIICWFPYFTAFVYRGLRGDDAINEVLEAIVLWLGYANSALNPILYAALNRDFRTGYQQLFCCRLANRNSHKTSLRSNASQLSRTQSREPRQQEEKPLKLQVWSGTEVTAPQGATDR
Sequence of Gamma-aminobutyric acid receptor subunit alpha-1 (P62813 whole entry): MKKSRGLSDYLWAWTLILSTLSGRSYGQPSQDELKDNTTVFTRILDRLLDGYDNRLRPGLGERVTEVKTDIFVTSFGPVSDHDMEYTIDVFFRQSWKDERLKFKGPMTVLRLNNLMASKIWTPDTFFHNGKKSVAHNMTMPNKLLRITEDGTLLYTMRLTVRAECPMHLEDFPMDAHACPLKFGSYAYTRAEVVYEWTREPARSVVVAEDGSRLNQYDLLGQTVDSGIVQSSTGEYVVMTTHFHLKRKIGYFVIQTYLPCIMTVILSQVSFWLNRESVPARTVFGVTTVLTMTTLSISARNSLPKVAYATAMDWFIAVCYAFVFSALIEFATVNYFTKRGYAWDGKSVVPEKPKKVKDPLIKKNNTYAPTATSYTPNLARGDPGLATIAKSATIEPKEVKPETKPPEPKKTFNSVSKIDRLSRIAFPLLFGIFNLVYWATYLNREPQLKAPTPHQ

As to `O=C(Cc1ccc(-c2ccccc2)cc1)Nc1ccccn1` [DIFENPIRAMIDE], the concentration at half-maximal activity (AC50) in [1] was > 30 µM; in test [2], > 30 µM; in [3], > 10 µM; in test [4], > 30 µM; in test [5], > 10 µM; in [6], > 30 µM. For the same compound, the AC50 in test [7], in [8], in test [9], in test [10], in test [11] and in test [12] was > 30 µM each time.

Regarding `O=C(OCC(O)CO)c1ccccc1Nc1ccnc2cc(Cl)ccc12` (stereo not drawn) [GLAFENINE], the AC50 in test [13] was > 30 µM; in [1] it was > 30 µM; in test [2] it was > 30 µM; in test [3], 7.51 µM; in test [4] it was > 30 µM; in test [5], 13.5 µM. The AC50 in test [6], in test [14], in [8], in test [15], in test [9] and in test [11] was > 30 µM in each case. Besides, the AC50 in test [12] was > 30 µM.

For `COCCCN1CCC(NC(=O)c2cc(Cl)c(N)c3c2OCC3)CC1` [PRUCALOPRIDE], the AC50 was > 30 µM in [13]; 26.7 µM in test [1]; 23.6 µM in test [2]; > 30 µM in [3]; > 30 µM in [4]; > 30 µM in test [5]. Further, the AC50 in test [6], in test [14], in test [8], in test [15], in [9] and in [11] was > 30 µM throughout. Also, in test [12], the AC50 is > 30 µM.

A word on the AC50: it is the concentration at which the activity in the assay is half-maximal. A low value points to greater potency.
